Reference: US9957262B2, “Opioid analgesic” (NATIONAL UNIVERSITY CORPORATION CHIBA UNIVERSITY, priority 2013, dated 2018)
pKi: −log10 of the molar value. “Also recorded” adds a separate entry of the source. Where two headings read alike, the source gives them in different places.

Experiments:
[1] = system: opioid receptors; settings: guinea pig small intestine, via opioid receptors; cited from earlier work
[2] = system: mice; settings: subcutaneous or oral administration, tail-flick test or hot-plate test; cited from earlier work
[3] = system: ddY strain mice; assay: Mouse tail-flick test, subcutaneous administration; type: in vivo; settings: for analgesic action in words: s.c., 0.3, 1 and 3 mg/kg; for time after administration at which the analgesic action returned to the vehicle level: any of the doses
Protocol: The results of the test are represented by dose-response curves. […] In addition, a similar test was performed by using a vehicle as a negative control. The analgesic action of each compound was quantified by using a percentage of maximum possible effect (% MPE). % MPE was calculated from the following equation: % MPE=[(Post-drug latency−Pre-drug latency)/(Cut-off time−Pre-drug latency)]×100. The abscissa axis of FIG. 1 indicates a time after the administration of each compound (time after injection (min)).
Six-week-old male ddY strain mice (Japan SLC, Inc.) were used.
MGM-30 and MGM-29 were each dissolved in 25 mM phosphate buffer (pH 5.3 to 5.5). MGM-9, which was a known mitragynine derivative compound, was used as a sample for comparison. MGM-9 was obtained by synthesis according to a method similar to a method described in each of the previous reports (Patent Literatures 2 and 3 and Non Patent Literature 3).
A tail-flick test is a method of evaluating the analgesic effect of a compound, which comprises applying a nociceptive stimulus, for example, a heat stimulus, to the tail of a mouse, and then using as an indicator flight response elicited by the stimulus. Since a mouse respond to the heat stimulus by flicking or moving its tail out of the path of the stimulus, the tail is exposed to a photocell located in a tail-flick analgesia meter (Ugo Basile Tail-flick Unit 7360, Ugo Basile) immediately below the tail. A reaction time is automatically recorded.
Before treatment with the compounds, the vehicle, or physiological saline, a nociceptive threshold was measured three times, and the mean of the reaction time was used as a pre-drug latency for each mouse. The intensity of the heat stimulus was adjusted to such an intensity that mice flicked the tail upward within from 2 seconds to 4 seconds, and a time for heat treatment was set to a maximum stimulation time (cut-off time) of 10 seconds in order to prevent tissue damage. Each of the compounds was subcutaneously administered to mice in a volume of 10 mL/kg with doses 0.3 mg/kg, 1 mg/kg, and 3 mg/kg. A latency after the administration (post-drug latency) was measured 15 minutes, 30 minutes, 45 minutes, 60 minutes, 90 minutes, 120 minutes, and 180 minutes after the administration. The vehicle used for diluting the compounds was used as a control in place of the compounds, and was administered in the same volume. The analgesic action of each compound was quantified through use of a ratio to the maximum drug efficacy, i.e., a percentage of maximum possible effect (hereinafter abbreviated as % MPE) % MPE was calculated from the following equation: % MPE=[(Post-drug latency−Pre-drug latency)/(Cut-off time−Pre-drug latency)]×100. Each value is expressed as the mean of data obtained from six mice±standard error.
Data was expressed as the mean±standard error. Statistical analyses were performed by the two-tailed Student's t test for comparison of two groups and by a one-way analysis of variance followed by a Bonferroni multiple-comparison test for comparison of more than two groups. A P value of <0.05 was considered statistically significant.

[4] = target: T1, human μ-opioid receptors (Homo sapiens, UniProt P35372); assay: Human μ-opioid receptor binding test with [3H]-DAMGO; settings: for pKi: [3H]-DAMGO 1 nM, CHO-K1 membrane fraction expressing human μ-opioid receptor, read-out: hMOR binding Ki
T1 construct: purchased PerkinElmer; host or cells: CHO-K1 cells (membrane fraction)
Protocol: The binding of each of MGM-30 and MGM-29 to human μ-opioid receptors was evaluated through use of a μ-opioid receptor ligand DAMGO ([D-Ala(2), N-Me-Phe(4), Gly-ol(5)] enkephalin acetate salt). MGM-9 was used as a sample for comparison and evaluated by the same method.
A cell membrane fraction of CHO-K1 cells expressing human μ-opioid receptor gene (manufactured by PerkinElmer) was used as a reagent. The human μ-opioid receptor-expressing cell membrane fraction was diluted to 1 mg/mL or 100 μg/mL with 50 mM Tris-HCl (pH 7.4), and then 1 mL of the dilution was dispensed in each of screw-capped vials, cryopreserved at −80° C., and dissolved before use. DAMGO was prepared at 1 mM with dimethylsulfoxide (hereinafter abbreviated as DMSO), and then dispensed in each of screw-capped vials, cryopreserved at −20° C., and dissolved before use.
A human μ-opioid receptor binding test was performed through use of the human μ-opioid receptor-expressing cell membrane fraction and [^3H]-labeled DAMGO (DAMGO, [TYROSYL-3,5-3H], manufactured by PerkinElmer: hereinafter referred to as [^3H]-DAMGO). Specifically, 10 μL of [^3H]-DAMGO (final concentration: 1 nM) diluted to 50 nM with 50% ethanol was added to 10 μL of a test compound solution obtained by diluting each of MGM-30, MGM-29, and MGM-9 with DMSO so as to have a final concentration of from 0.1 nM to 10,000 nM. 480 μL of the μ-opioid receptor-expressing cell membrane fraction diluted to 40 μg/mL with binding assay buffer (10 mM MgCl2, 50 mM Tris-HCl, 0.2% BSA, pH 7.4) was further added, followed by mixing, and the mixture was then subjected to a reaction at 27° C. for 2 hours. The same tests were performed for measurement of total binding activity by using 10 μL of DMSO in place of the test compound, and for measurement of μ-opioid receptor non-specific binding activity by using 10 μL of 1 mM DAMGO (final concentration: 20 μM) in place of the test compound. The binding reaction was terminated by suction filtration with a GF/C filter (manufactured by Whatman) preimmersed in 0.5% polyethylene imine. The filter was washed four times with 2.5 mL of a washing buffer (10 mM Tris-HCl, pH 7.4), and radioactivity remaining in the filter was measured. Then, a dissociation constant (Kd value) of [^3H]-DAMGO for the μ-opioid receptor-expressing cell membrane fraction was calculated by Scatchard plot analysis.
IC50 value was calculated, which is a test compound concentration at which the specific binding of [^3H]-DAMGO to human μ-opioid receptors was inhibited by 50%, by using analysis software XLfit™ ([…]). Then, an inhibition constant (Ki value) was calculated using the following equation: Ki=IC50/(1+S), S=(Concentration of [^3H]-DAMGO/Kd of [^3H]-DAMGO).

[5] = target: hMOR (human μ-opioid receptors) (Homo sapiens, UniProt P35372); assay: hMOR agonist activity (% DAMGO); type: biochemical
[6] = Metabolic stability test, human liver microsome; type: in vitro ADME; settings: for Metabolic stability Ms human (% remaining): human liver microsomal fraction, 37° C., 30 minutes, NADPH; for metabolic stability compared to formula (III), in words: in vitro metabolic stability test using liver microsome
From the text: (§1) Liver microsome was used and subjected to a reaction with MGM-30 or MGM-29 for a predetermined time. A sample subjected to the reaction was compared to a sample not subjected to the reaction to calculate a residual ratio for evaluating a degree of a compound that was metabolized in liver. MGM-9 was used as a sample for comparison and evaluated by the same method.
(§2) Commercially available pooled human liver microsome (manufactured by Xenotech) was used as human liver microsome. Pooled rat liver microsome prepared from rat liver by a method known per se was used as rat liver microsome.
(§3) A metabolic stability test was specifically performed as described below. First, a test compound was subjected to a reaction (oxidative reaction) at 37° C. for 0 minutes or 30 minutes in 0.2 mL of a buffer (50 mmol/L tris-HCl pH 7.4, 150 mmol/L potassium chloride, 10 mmol/L magnesium chloride) containing 0.5 mg protein/mL of liver microsome in the presence of 1 mmol/L nicotinamide adenine dinucleotide phosphate (hereinafter abbreviated as NADPH). After the reaction, 50 μL of the reaction liquid was added to 100 μL of a solution of methanol/acetonitrile=1/1 (volume/volume: hereinafter abbreviated as v/v), followed by mixing and centrifugation at 3,000 rpm for 15 minutes. The test compound in the centrifugation supernatant was quantified by liquid chromatograph/tandem mass spectrometry (LC/MS/MS). Then, the amount of the compound at the start of the reaction was defined as 100%, and the residual ratio of the test compound after the reaction was calculated. A hydrolysis reaction was performed in the absence of NADPH, and a glucuronidation reaction was performed in the presence of 5 mM UDP-glucuronic acid in place of NADPH. Then, the same operation was performed.

[7] = Metabolic stability test, rat liver microsome; type: in vitro ADME; settings: rat liver microsomal fraction, 37° C., 30 minutes, NADPH
From the text: as §1, §2, §3

[8] = 3 mg/kg s.c., 15 minutes after administration
[9] = 3 mg/kg s.c., 15 minutes to 60 minutes after administration

T1 sequence (P35372 whole entry): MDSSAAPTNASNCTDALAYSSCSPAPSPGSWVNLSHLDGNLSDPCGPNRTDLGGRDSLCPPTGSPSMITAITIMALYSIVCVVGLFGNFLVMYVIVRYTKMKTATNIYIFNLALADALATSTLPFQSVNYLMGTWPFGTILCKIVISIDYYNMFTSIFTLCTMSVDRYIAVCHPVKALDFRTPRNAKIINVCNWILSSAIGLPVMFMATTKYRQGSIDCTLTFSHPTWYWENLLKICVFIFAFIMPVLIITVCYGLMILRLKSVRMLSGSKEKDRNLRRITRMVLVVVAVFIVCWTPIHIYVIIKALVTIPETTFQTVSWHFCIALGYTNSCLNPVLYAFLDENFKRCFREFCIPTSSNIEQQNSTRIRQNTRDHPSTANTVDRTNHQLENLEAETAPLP
hMOR (human μ-opioid receptors), sequence (P35372 whole entry): as above

SMILES	analgesic action (% MPE) [3, 8]	analgesic action (% MPE) [3, 9] [%]	time after administration at which the maximum analgesic action was expressed ([3]; s.c.) [min]	analgesic action in words [3]	time after administration at which the analgesic action returned to the vehicle level ([3]; s.c.)	pKi [4]	hMOR agonist (% DAMGO) [5] [% DAMGO]	Metabolic stability Ms human (% remaining) [6] [% remaining]	Metabolic stability Ms rat (% remaining) [7] [% remaining]	metabolic stability compared to formula (III), in words [6]	other results
CC[C@@H]1CN2CC[C@@]3(O)C(=Nc4cccc(OC)c43)[C@@H]2C[C@@H]1/C(=C\OC)C(=O)OC [7-hydroxymitragynine]	–	–	–	–	–	–	–	–	–	–	effect on contraction induced by electrical stimulation [1]: inhibited contraction induced by electrical stimulation; antinociceptive action [2]: remarkable antinociceptive action
CC[C@@H]1CN2CC[C@@]34OCCO[C@@]3(Nc3ccc(F)c(OC)c34)[C@@H]2C[C@@H]1/C(=C\OC)C(=O)OC [MGM-9, reference compound]	100%	100	15	dose-dependent analgesic action	One hundred and eighty	8.46	49.0	57	3	–	analgesic action (% MPE) ([3]; 1 mg/kg s.c., 15 minutes after administration): 100%; time after administration until which the analgesic action was sustained ([3]; 3 mg/kg s.c.): 120 min
CC[C@@H]1CN2CC[C@@]34OCCC[C@@]3(Nc3cccc(OC)c34)[C@@H]2C[C@@H]1/C(=C\OC)C(=O)OC [MGM-29]	about 20%	–	–	limited analgesic action; also recorded: dose-dependent analgesic action	–	8.31	45.9	78	36	remarkably high metabolic stability	analgesic action in words ([3]; listed as formula (II)): exhibited an analgesic action, although the action was determinative; binding affinity for human μ-opioid receptors relative to MGM-9 (formula (III)), in words [4]: comparable to that of MGM-9; binding affinity for human μ-opioid receptors relative to MGM-9 (formula (III)), in words ([4]; listed as formula (II)): comparable to that of the compound represented by the formula (III)
CC[C@@H]1CN2CC[C@@]34OCC[C@@]3(Nc3cccc(OC)c34)[C@@H]2C[C@@H]1/C(=C\OC)C(=O)OC [MGM-30]	–	100	15	dose-dependent analgesic action; also recorded: most potent analgesic action and had the longest duration of action	180 min	9.92	46.2	92	43	remarkably high metabolic stability	analgesic action (% MPE) ([3]; 0.3 mg/kg s.c., 15 minutes to 30 minutes after administration): about 95%; time after administration until which the analgesic action was sustained ([3]; 1 mg/kg and 3 mg/kg s.c.): 90 min; analgesic action (% MPE) ([3]; 1 mg/kg s.c., 15 minutes to 60 minutes after administration): 100%; analgesic action relative to the compound of formula (III) (MGM-9) ([3]; s.c.): approximately 3 fold; analgesic action in words ([3]; listed as formula (I)): potent analgesic action in a dose-dependent manner; binding affinity for human μ-opioid receptors relative to MGM-9 (formula (III)) [4]: about 30 fold
